The record followed here is patent US20150374784A1, “COMPOSITIONS AND METHODS FOR REDUCING GERM CELL DEATH” (Los Angeles Biomedical Research Institute at Harbor-UCLA …, priority 2014, published 2015).

In assay [1] the test system is HEK293 (normal embryonic kidney cells). The assay can be described thus: Autophagy induction (LC3-II, mRFP-GFP-LC3) in HEK293. The class given is cell-based. From the text: (§1) The increased level of LC3-II, a marker of autophagosome was examined by Western blot and immunocytochemistry. The increase of autophagosomes and autolysosomes in HEK293 cells stably expressing mRFP-GFP-LC3, a dual-tag reporter of autophagy, was examined following humanin treatment. In addition, the signaling pathways activated by humanin using a phospho-antibody array in SH-SY5Y cells was investigated. […] Both activation and suppression of autophagy are involved in cancer pathogenesis and treatment, depending on the context.

A further assay has as its system SH-SY5Y (neuroblastoma). The assay is described as follows: Autophagy induction in SH-SY5Y. The class given is cell-based.
Text: as §1

The subject of the next assay is B16 (melanoma). The assay can be described thus: Autophagy induction in B16 (fluorescent microscopy, western blot of LC3-II). The class given is cell-based, mouse. (Immunoblotting shows a protein as a band on a membrane.)
For assay [2], the system named is phosphorylated-AMPK (p-AMPK). The assay is described as follows: Immunohistochemistry of lung metastases: p-AMPK. The note with it: mean±SD; CP 200 mg/kg single IP; HNG 5 mg/kg daily IP 14 days. The class given is in vivo, mouse. How it is done:
(§2) Methods: Adult male mouse (n=5/group) were seeded with mouse B16 melanoma cells (100,000 cells/mouse) via tail vein on day 1. One week after melanoma cell inoculation, mice were treated either with a single intraperitoneal injection (IP) of CP (200 mg/kg), or daily IP injections of HNG (5 mg/kg), or both for 14 days. Mice were sacrificed at day 21 and lungs were fixed in formaldehyde. Immunohistochemistry was performed on lung metastases with antibodies against phosphorylated-AMPK (p-AMPK), p-4E-BP1 (downstream effector of mTOR) and Ki-67 antigen (a marker of cell proliferation).

In the next assay the test system is Ki-67 antigen. The assay is described as follows: Immunohistochemistry of lung metastases: Ki-67. The note with it: CP 200 mg/kg single IP, HNG 5 mg/kg daily IP 14 days. The class given is in vivo, mouse. How it is done:
as §2

For “MAPRGFSCLLLLTSEIDLPVKRRA [HN, 24-amino acid mitochondrial derived peptide]”, the autophagy result (in assay [1]; in the assay on SH-SY5Y (neuroblastoma); in the assay with B16 (melanoma)) was “induces autophagy” throughout.
As to `O=P1(N(CCCl)CCCl)NCCCO1` (centres unmarked) [CP, cyclophosphamide monohydrate], in assay [2], the “percent p-AMPK positive cells in metastatic lung melanoma” value was found to be 11.3±15.6%. The “mean Ki-67 index” value with Ki-67 antigen stood at 30.0±16.2.
